# Values quoted from earlier work in patent US8133194B2 (Henry Ford Health System, priority 2006, dated 2012).
# Key:
# [1] = ICU patients
# [2] = as stated for pre-filter fluid pH
# [3] = under normal conditions, equal to the renal plasma flow
SMILES,K(b) liver clearance of citrate [1],pKa3 [2],PAH clearance [3]
O=C(O)CC(O)(CC(=O)O)C(=O)O [Citrate],0.2 to 0.5 L/min,6.3,–
"Nc1ccc(C(=O)NCC(=O)O)cc1 [PAH, para-amino-hippuric acid]",–,–,up to 0.6 L/minute
